Key:
[1] = Time to complete dissolution during preparation of high concentration solutions; format: physicochemical
Method: Solubilization of Baclofen by Heat and Sonication. Appropriate amounts of baclofen were weighed and added to appropriate volumes of normal saline in order to produce mixtures containing 4, 5, 6, 8 or 10 mg/mL baclofen. All samples had undissolved baclofen powder present immediately after mixing. Samples having concentrations of 4, 5 or 6 mg/mL of baclofen were heated to 70° C. Samples having concentrations of 8 and 10 mg/mL of baclofen were heated to 95° C. Intense agitation was applied to all of the samples by sonicating the samples during the heating step. Heating and sonication were continued until all of the powder dissolved, and a clear solution with no residual particulate matter resulted. For the 4, 5, and 6 mg/mL samples, this occurred in about 20 to 30 minutes. […] Again, the solutions were clear with no residual particulate matter.
Solubilization of Baclofen by Heat and High-Speed Stirring. Appropriate amounts of baclofen were weighed and added to appropriate volumes of normal saline in order to produce mixtures containing 4, 5, 6, 8 or 10 mg/mL baclofen. All samples had undissolved baclofen powder present immediately after mixing. Samples having concentrations of 4, 5 or 6 mg/mL of baclofen were heated to 70° C. Samples having concentrations of 8 and 10 mg/mL of baclofen were heated to 95° C. Intense agitation was applied to all of the samples by high-speed stirring. A high-speed stir bar was placed in each of the containers for each of the baclofen concentrations was stirred using a Thermolyne stirrer at a speed of about 600 rpm while the solutions were heated. This was designed to simulate the use of a high-speed high shear mixer in a larger industrial setting. Again the heating at 70° C. for the 4, 5, and 6 mg/mL concentrations and to 95° C. for the 8 and 10 mg/mL concentrations and high-speed stirring were continued until all of the powder had dissolved and a clear solution with no residual particulate matter resulted. This occurred within about 20 minutes with all samples.
Acidification with Back Titration. Baclofen concentrations of 4, 5, 6, 8, and 10 mg/mL were prepared by dissolving appropriate amounts of baclofen powder in 0.1 N hydrochloric acid. […] The solutions were then back titrated with 0.1 N sodium hydroxide to reach a pH about 5.0 to 5.1, which is within the current product pH range for commercial baclofen solutions, and brought to volume with 0.9% sodium chloride. After complete dissolution had occurred, the solutions were filtered through 0.22-micron sterilizing filters into sterile empty vials. The vials were stored at room temperature, under refrigeration, and at 37° C. to simulate “in use” conditions in an implanted pump.
Alkalinization with Back Titration. Baclofen concentrations of 4, 5, 6, 8, and 10 mg/mL were prepared by dissolving appropriate amounts of baclofen powder in 0.1 N sodium hydroxide. […] The solutions were then back titrated with 0.1 N hydrochloric acid to reach a pH about 6.9 to 7.0, which is within the current product range, and brought to volume with 0.9% sodium chloride. After complete dissolution had occurred, the solutions were filtered through 0.22-micron sterilizing filters into sterile empty vials. The vials were stored at room temperature, under refrigeration, and at 37° C. to simulate “in use” conditions in an implanted pump.

[2] = Physical stability evaluation (visual inspection, Tyndall beam, turbidity, particle counting) of stored baclofen solutions; format: physicochemical; conditions: for time remained clear and free of unacceptable microparticulates: room temperature or 37° C.
Method: Methods of Sample Preparation. All manipulations are conducted in a Class 100 environment in a biological safety cabinet. Each test solution is prepared as a pooled sample and then subdivided by (1) drawing 20 mL of the solution into 30-mL Becton-Dickinson syringes having Braun Luer lock “Red Cap” syringe tip seals and (2) sealing the Luer tip with a Red Cap Luer tip seal and (3) filling 20 mL of the test solution into 30-mL sterile empty glass vials. Separate sample syringes and sample vials are prepared for each drug concentration at each storage temperature. Separate syringes and vials are prepared for analysis of the drug content. Further syringes and vials are used to evaluate the physical stability of the solutions.
Methods of Sampling and Analysis. Each pooled solution is analyzed and evaluated immediately after preparation. This serves as the initial time point evaluation for the test solution. The solution is then packaged into the syringes and vials as noted under Sample Preparation.
The test solutions in vials and syringes are thoroughly mixed prior to sampling. A 1-mL sample of each test solution from three test syringes and three test vials is collected and chemically analyzed. The sample aliquots are removed from each container after 1, 3, 7, 14, 21, 30 and 60 days of storage at 4° C., 23° C., and 37° C. Triplicate HPLC determinations are performed at each time point if needed to determine the maximum stability of baclofen. The contents of the remaining containers are visually inspected at each assay time point and 6-mL samples are collected and fully evaluated for physical stability as indicated under Physical Stability Evaluation above after 1, 3, 7, 14, 21, 30 and 60 days.
After complete dissolution of the samples had occurred, the solutions were allowed to cool to room temperature and several separate aliquots of each sample were filtered through 0.22-micron sterilizing filters into sterile empty vials. Vials containing samples of each solution were stored under one of three test conditions: vials were stored at room temperature or under refrigeration (to simulate normal storage conditions), or at 37° C. (to simulate “in use” conditions in an implanted pump).
Physical Stability Evaluation. The samples are also evaluated for changes in turbidity and particulate formation. In addition to visual inspection in normal diffuse fluorescent room light and using a high-intensity monodirectional light source (Tyndall beam) against a dark background, turbidity is measured using a Hach Company model 2100AN color-correcting turbidimeter, and particle sizing/counting is performed using a light-obscuration particle sizer and counter (HIAC-Royco Model 9703 particle sizer/counter).

[3] = cited from earlier work
[4] = 20° C.; cited from earlier work
[5] = aqueous solution, room temperature, neutral pH (pH 6 to 7); calculated (Ahuja, 1985); cited from earlier work
[6] = intrathecal injection at effective CSF concentrations vs oral administration; cited from earlier work

time until all powder dissolved (clear solution) ([1]; 4, 5, 6 mg/mL at 70° C. and 8, 10 mg/mL at 95° C., normal saline, high-speed stirring about 600 rpm (Example 2)): ≤ 20 min | time until powder dissolved (clear solution) ([1]; 4, 5, 6, 8, and 10 mg/mL in 0.1 N hydrochloric acid (Example 3)): within a few minutes | time until powder dissolved (clear solution) ([1]; 4, 5, 6, 8, and 10 mg/mL in 0.1 N sodium hydroxide (Example 4)): within a few minutes | time until all powder dissolved (clear solution) ([1]; 4, 5, and 6 mg/mL in normal saline, 70° C., sonication (Example 1)): 20 to 30 min | time until all powder dissolved (clear solution) ([1]; 8 and 10 mg/mL in normal saline, 95° C., sonication (Example 1)): about 20 minutes | time stayed in solution, clear and free of visible particulates and unacceptable microparticulates ([2]; 4 mg/mL, Examples 1 and 2, 37° C. (maximum duration tested)): at least one | time remained clear and free of unacceptable microparticulates ([2]; 4 mg/mL, prepared by pH adjustment (Examples 3 and 4)): at least 60 days | time remained clear and free of unacceptable microparticulates ([2]; 5 mg/mL, all four methods (Examples 1-4)): at least 60 days | time after which a precipitate developed ([2]; 6 mg/mL, refrigeration): 7 days | time remained in solution clear and free of unacceptable microparticulates ([2]; 8 mg/mL, acidification and back titration to pH 5 (Example 3), room temperature): at least 30 days | time remains in solution clear and free of unacceptable microparticulates ([2]; 8 mg/mL, alkalinization and back titration (Example 4), room temperature): at least 30 days
SMILES: NCC(CC(=O)O)c1ccc(Cl)cc1 (stereo not drawn) [Baclofen, 4-amino-3-(p-chlorophenyl) butyric acid]
concentration obtained by dissolving in acid ([3]; aqueous 0.1N HCl (Ahuja 1985)): greater than 20 mg/ml | concentration obtained by dissolving in base ([3]; aqueous 0.1N NaOH (Ahuja 1985)): greater than 20 mg/ml | solubility in chloroform ([3]; chloroform): insoluble | solubility in methanol ([3]; methanol): very slightly soluble | upper limit on room temperature aqueous solubility ([3]; room temperature, equilibrium reached over weeks or months (Ahuja, 1985)): 4300 µg/mL | solubility in water ([3]; water): slightly soluble | pKa1 [4]: 3.8±0.1 | pKa2 [4]: 9.62±0.1 | time before there is 10% decomposition of the dissolved baclofen [5]: 10 years | plasma concentrations with intrathecal injection relative to oral administration [6]: 100 times less

Reference: patent publication US8357379B2, “High concentration baclofen preparations” (Board of Regents, The University of Texas System, priority 2004, dated 2013)
